Assay results from patent US11396522B2, “Bis-acetal-based substrates for imaging exo-glycosidase activity” (ALECTOS THERAPEUTICS INC., priority 2017, dated 2022).
Blank lines part the entries; values can stand above or below the compound they belong to.

Tests used:
[1] = target: T1, hOGA (Homo sapiens, UniProt O60502); assay: Turnover by hOGA within SK-N-SH lysate; assay type: biochemical
T1 construct: started by addition of hOGA (WT, Full-length, expressed in E. coli. as previously described); made in house; host or cells: E. coli
T1 sequence (O60502 1-916): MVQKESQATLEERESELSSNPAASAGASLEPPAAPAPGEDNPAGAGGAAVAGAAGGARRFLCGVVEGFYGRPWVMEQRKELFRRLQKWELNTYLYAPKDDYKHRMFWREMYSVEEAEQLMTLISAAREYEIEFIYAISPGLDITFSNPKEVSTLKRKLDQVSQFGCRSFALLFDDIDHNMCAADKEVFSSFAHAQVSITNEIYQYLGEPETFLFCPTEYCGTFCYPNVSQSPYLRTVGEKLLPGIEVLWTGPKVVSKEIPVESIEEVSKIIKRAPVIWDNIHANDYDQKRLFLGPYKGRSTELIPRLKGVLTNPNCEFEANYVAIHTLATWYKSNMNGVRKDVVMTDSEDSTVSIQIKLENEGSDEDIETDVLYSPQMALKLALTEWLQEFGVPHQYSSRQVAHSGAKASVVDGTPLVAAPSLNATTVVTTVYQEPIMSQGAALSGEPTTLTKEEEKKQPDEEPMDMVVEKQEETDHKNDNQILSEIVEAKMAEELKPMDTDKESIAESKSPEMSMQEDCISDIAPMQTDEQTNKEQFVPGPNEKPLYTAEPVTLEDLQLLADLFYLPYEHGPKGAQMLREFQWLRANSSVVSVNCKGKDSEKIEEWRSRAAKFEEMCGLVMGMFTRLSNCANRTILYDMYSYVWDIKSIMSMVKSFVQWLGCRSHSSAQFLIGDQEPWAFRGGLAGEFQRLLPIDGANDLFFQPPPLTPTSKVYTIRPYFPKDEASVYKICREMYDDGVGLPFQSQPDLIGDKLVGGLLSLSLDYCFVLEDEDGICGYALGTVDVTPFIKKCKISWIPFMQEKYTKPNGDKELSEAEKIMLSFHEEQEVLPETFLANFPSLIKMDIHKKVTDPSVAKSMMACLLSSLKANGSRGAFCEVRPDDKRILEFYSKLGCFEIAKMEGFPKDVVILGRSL
Protocol: For cell lysates experiments, SK-N-SH cells were cultured in EMEM media supplemented with 10% FBS and Penicillin/Streptomycin antibiotics. Cells were collected, washed with PBS and lyzed using ice-cold NP-40 lysis buffer (TRIS-HCl 50 mM pH 7.4, NP-40 1%, NaCl 150 mM). After centrifugation, the supernatant was diluted in PBS. The quantity of lysate used in each measurement well (384-well plate) was equivalent to 25000 cells. […] Reactions were started by adding the substrate at a final concentration of 20 μM. This experiment was carried out in quadruplicates and the rates were determined by establishing a standard curve for EDANS fluorescence in the SK-N-SH lysate.
To evaluate the compatibility of the BABS design with complex cellular extracts, we also measured the turnover of GlcNAc-Br-BABS in SK-N-SH cell lysate in the presence of increasing concentrations of hOGA (FIG. 9). […] Buffer control consists of PBS supplemented to lysis buffer. […] Error bars represent standard deviation over quadruplicate.

[2] = target: T2, human O-GlcNAcase (hOGA) (Homo sapiens, UniProt O60502); conditions: literature value (ref 39); cited from earlier work
T2 construct: started by addition of hOGA (WT, Full-length, expressed in E. coli. as previously described); made in house; host or cells: E. coli
T2 sequence (O60502 1-916): T1 sequence (O60502 1-916)

[3] = target: T1, hOGA; assay: Interrupted assay for determination of hemiacetal breakdown; assay type: biochemical; conditions: hemiacetal generated from the substrate; hOGA stopped after 1 min with Thiamet-G 100 μM
Protocol: For some experiments, fluorescence kinetic assays were performed using a Varian Cary Eclipse Spectrophotometer set for 335/493 nm excitation/emission wavelengths. Slits were set at 10 nm and the detector was set on Medium voltage. Enzymatic reactions with human OGA were carried out in PBS at 37° C. and were started by addition of hOGA (WT, Full-length, expressed in E. coli. as previously described) in a total volume of 160 μL (Starna sub-micro Fluorometer cuvette). For measurements of rates using different concentrations of substrates, a hOGA concentration of 100 nM was used. For hOGA titration, 25 μM of Glyco-BABS were added to various concentration of hOGA. For interrupted assay, reaction was started by addition of hOGA (680 nM final) in solutions of GlcNAc-BABS in PBS. […] For hemiacetal breakdown rate measurements, data after Thiamet-G addition was extracted and fitted using Prism software. EDANS standard curve was established using endpoint fluorescence measurements of serial dilutions of EDANS in the relevant buffer using the same instrument parameters. Inner-Filter effect measurements were carried out in cuvette by measuring fluorescence of several concentrations of EDANS in presence of various concentrations of GlcNAc-BABS. Kinetics with Glc-BABS and GBA enzymes (GBA1 and GBA3 purchased from R&D Systems), kinetics with GALC (R&D systems) and Gal-BABS, pH stability, quenching efficiency, some inner-filter effect experiments and lysates experiments were carried out using a Molecular Devices SpectraMax i3× plate reader. Emission/Excitation wavelengths were set at 350 and 490 nm respectively for EDANS/DABCYL Glyco-BABS and at 565 and 610 nm respectively for TAMRA/BHQ2 Glyco-BABS. Fluorescence measurements were performed using Costar 96-well black plates or Nunc 384-well black plates after sample preparation in 96-well mixing plates. For GBA1, the continuous assay was performed in citrate buffer (50 mM, pH 5.5) in the presence of 0.1% Triton, 1 mg/mL BSA and 0.14% taurodeoxycholate at 25° C. […]

[4] = pH stability of Glyco-BABS; assay type: physicochemical; conditions: 5 μM, up to 72 h, pH 2 to 10
From the text: One concern with the Glyco-BABS design was the known lability of acetals under acidic conditions that has been exploited in pH-sensitive prodrugs or linkers for drug delivery.^41,42 However, we recognized that carbohydrate anomeric acetals are chemically distinct from regular acetals. Due to stabilization by the endocyclic oxygen, we expected these bis-acetals would show stability across a range of physiological pH values. We therefore assessed the stability of the bis-acetal motif toward acid and base hydrolysis (FIG. 8). To do so, we tested the pH stability of 5 μM of GlcNAc-Br-BABS 1, GlcNAc-OH-BABS 2, Glc-OH-BABS 6 and Glc-H-BABS 7 at different pH over time. We prepared solutions at various pH by mixing 0.2 M KCl+0.1 M HCl with 0.2 M KCl+0.1 M KOH. Fluorescence of EDANS and Glyco-BABS solutions (5 μM, 45 μL) at different pH was measured at different time points in Nunc 384-well plates using a SpectraMax i3× plate reader. Data (triplicates) support the highly efficient quenching and the stability of these substrates over a wide range of pH.

- inhibition of substrate turnover in SK-N-SH lysate ([1]; Thiamet-G 200 μM, substrate GlcNAc-Br-BABS 1): completely inhibits
Structure (SMILES): CCNC1=N[C@@H]2[C@@H](O)[C@H](O)[C@@H](CO)O[C@@H]2S1 [Thiamet-G, (3aR,5R,6S,7R,7aR)-2-(ethylamino)-3a,6,7,7a-tetrahydro-5-(hydroxymethyl)-5H-Pyrano[3,2-d]thiazole-6,7-diol, reference compound]

Structure (SMILES): CO[C@@H]1O[C@H](CO)[C@@H](O)[C@H](O)[C@H]1NC(C)=O [methyl β-D-N-acetylglucopyranoside]
- second order rate constant with hOGA [2]: 440 M⁻¹ s⁻¹

- first order rate constant (k3) for hemiacetal breakdown [3]: 0.01 s⁻¹
- turnover in SK-N-SH cell lysate with added hOGA ([1]; 20 μM substrate, 25° C., increasing hOGA): efficiently processed within lysates
- pH stability (increase of fluorescence) [4]: no significant increase of fluorescence
Structure (SMILES): CC(=O)N[C@H]1[C@H](O[C@@H](OCCOCCn2cc(CNC(=O)c3ccc(/N=N/c4ccc(N(C)C)cc4)cc3)nn2)[C@@](C)(Br)C(=O)NCCNc2cccc3c(S(=O)(=O)O)cccc23)O[C@H](CO)[C@@H](O)[C@@H]1O [Compound 1, 5-((2-((2R,3R)-3-(((2S,3R,4R,5S,6R)-3-acetamido-4,5-dihydroxy-6-(hydroxymethyl)tetrahydro-2H-pyran-2-yl)oxy)-2-bromo-3-(2-(2-(4-((4-((E)-(4-(dimethylamino)phenyl)diazenyl)benzamido)methyl)-1H-1,2,3-triazol-1-yl)ethoxy)ethoxy)-2-methylpropanamido)ethyl)amino)naphthalene-1-sulfonic Acid]
